Tests used:
[1] = test system: SARS-CoV-2; conditions: model cell lines; cited from earlier work
[2] = test system: SARS-CoV-2 WA strain; test: Inhibition of SARS-CoV-2 in infected Vero E6 cells (MTT, OD590) with ZIP delta synergy score; assay type: cell-based; conditions: Severe acute respiratory syndrome coronavirus 2, Vero C1008, 72 h, read-out: Inhibition rate

SMILES | inhibition of SARS-CoV-2 replication [1] | inhibition at 0.2 µM ([2]; Comparative group 2: MTX 0.2 μM, remdesivir 0 μM, Vero E6 cells, 3 days) | inhibition at 3 µM [2]
CN(Cc1cnc2nc(N)nc(N)c2n1)c1ccc(C(=O)N[C@@H](CCC(=O)O)C(=O)O)cc1 [MTX, methotrexate] | dose-dependent, potent inhibition | 11.7% | 
CCC(CC)COC(=O)[C@H](C)N[P@](=O)(OC[C@H]1O[C@@](C#N)(c2ccc3c(N)ncnn23)[C@H](O)[C@@H]1O)Oc1ccccc1 [remdesivir] |  |  | 4.57%
